Data taken from PubChem BioAssay AID2060504 (Molecular Pharmacology Branch, DTP, NCI, 2025).

System: 636577-100-R-J1-PDC complex spheroid viability
Experiment: Anticancer human tumor 636577-100-R-J1-PDC patient-derived endometrial adenocarcinoma cell line growth inhibition [GQUAD]
Conditions: for IC50: curve of first compound; for viability, T/C: stronger effect = lower value; active = viability on the fitted dose curve at most 10% of control; inactive = the rest
Outline: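 Viability of tumor cells grown as complex spheroids with endothelial and stromal cells, exposed to drug combinations. Top concentration at or near clinical Cmax (else 10 microM), diluted in half-log increments.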

[1] = second compound 0.0316 µM, first compound 0.0316 µM
[2] = second compound 0.0316 µM, first compound 0.1 µM
[3] = second compound 0.0316 µM, first compound 0.316 µM
[4] = second compound 0.0316 µM, first compound 1 µM
[5] = second compound 0.0316 µM, first compound 3.16 µM
[6] = second compound 0.0316 µM, first compound 10 µM
[7] = second compound 0.1 µM, first compound 0.0316 µM
[8] = second compound 0.1 µM, first compound 0.1 µM
[9] = second compound 0.1 µM, first compound 0.316 µM
[10] = second compound 0.1 µM, first compound 1 µM
[11] = second compound 0.1 µM, first compound 3.16 µM
[12] = second compound 0.1 µM, first compound 10 µM
[13] = second compound 0.316 µM, first compound 0.0316 µM
[14] = second compound 0.316 µM, first compound 0.1 µM
[15] = second compound 0.316 µM, first compound 0.316 µM
[16] = second compound 0.316 µM, first compound 1 µM
[17] = second compound 0.316 µM, first compound 3.16 µM
[18] = second compound 0.316 µM, first compound 10 µM
[19] = second compound 1 µM, first compound 0.0316 µM
[20] = second compound 1 µM, first compound 0.1 µM
[21] = second compound 1 µM, first compound 0.316 µM
[22] = second compound 1 µM, first compound 1 µM
[23] = second compound 1 µM, first compound 3.16 µM
[24] = second compound 1 µM, first compound 10 µM
[25] = second compound 3.16 µM, first compound 0.0316 µM
[26] = second compound 3.16 µM, first compound 0.1 µM
[27] = second compound 3.16 µM, first compound 0.316 µM
[28] = second compound 3.16 µM, first compound 1 µM
[29] = second compound 3.16 µM, first compound 3.16 µM
[30] = second compound 3.16 µM, first compound 10 µM
[31] = second compound 10 µM, first compound 0.0316 µM
[32] = second compound 10 µM, first compound 0.1 µM
[33] = second compound 10 µM, first compound 0.316 µM
[34] = second compound 10 µM, first compound 1 µM
[35] = second compound 10 µM, first compound 3.16 µM
[36] = second compound 10 µM, first compound 10 µM
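Also: viability read after seven days of drug exposure.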
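For viability, T/C in this document: luminescence signal used as a proxy for viable cells; 100% = DMSO vehicle control wells.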

COc1ncnc(C2CC2)c1-c1ncc2cnn(Cc3ccc(-c4nc(C(F)(F)F)cn4C(C)C)cc3)c2n1 + CN(C)c1ccc(Nc2c3ccc(NC(=O)CCN4CCCC4)cc3nc3cc(NC(=O)CCN4CCCC4)ccc23)cc1
91.6 nM: IC50 (second compound 1 µM)
< 31.6 nM: IC50 (second compound 3.16 µM) | IC50 (second compound 10 µM)
inactive: viability, T/C [1] 79.6% | viability, T/C [2] 62.9% | viability, T/C [3] 69.6% | viability, T/C [4] 64% | viability, T/C [5] 56.9% | viability, T/C [6] 57.4% | viability, T/C [7] 69.4% | viability, T/C [8] 47.5% | viability, T/C [9] 66% | viability, T/C [10] 39.1% | viability, T/C [11] 63% | viability, T/C [12] 68.8% | viability, T/C [13] 71.5% | viability, T/C [14] 61.9% | viability, T/C [15] 58.1% | viability, T/C [16] 54.4% | viability, T/C [17] 64.2% | viability, T/C [18] 48.9% | viability, T/C [19] 57.2% | viability, T/C [20] 52.5% | viability, T/C [21] 49.2% | viability, T/C [22] 25.7% | viability, T/C [23] 54.3% | viability, T/C [24] 48.9% | viability, T/C [25] 32.4% | viability, T/C [26] 31.1% | viability, T/C [27] 36.2% | viability, T/C [28] 30.8% | viability, T/C [29] 26% | viability, T/C [30] 17.8%
active: viability, T/C [31] 4.33% | viability, T/C [32] 4.66% | viability, T/C [33] 3.91% | viability, T/C [34] 3.97% | viability, T/C [35] 2.12% | viability, T/C [36] 0.46%
> 10000 nM: IC50 (second compound 0.0316 µM) | IC50 (second compound 0.1 µM) | IC50 (second compound 0.316 µM)

O=c1[nH]cc(F)c(=O)[nH]1 + Cc1cnc(CNC(=O)c2c(=O)c3ccc(N4CCCN(C)CC4)nc3n3c2sc2ccccc23)cn1
inactive: viability, T/C [1] 47.8% | viability, T/C [2] 45.1% | viability, T/C [3] 49.7% | viability, T/C [4] 39.9% | viability, T/C [5] 36.7% | viability, T/C [6] 21.3% | viability, T/C [7] 28.9% | viability, T/C [8] 26.9% | viability, T/C [9] 27.6% | viability, T/C [10] 25.9% | viability, T/C [11] 25.5% | viability, T/C [12] 18.4% | viability, T/C [13] 24.2% | viability, T/C [14] 23.3% | viability, T/C [15] 17.6% | viability, T/C [16] 21.9% | viability, T/C [17] 22.2% | viability, T/C [18] 16.6% | viability, T/C [19] 21.3% | viability, T/C [20] 21.1% | viability, T/C [21] 19.7% | viability, T/C [22] 23% | viability, T/C [23] 21.1% | viability, T/C [24] 20.1% | viability, T/C [25] 20% | viability, T/C [26] 19.5% | viability, T/C [27] 21.8% | viability, T/C [28] 24.1% | viability, T/C [29] 21% | viability, T/C [30] 22% | viability, T/C [31] 17.7% | viability, T/C [32] 17.9% | viability, T/C [33] 18% | viability, T/C [34] 18.7% | viability, T/C [35] 20.4% | viability, T/C [36] 20.1%
< 31.6 nM: IC50 (second compound 0.0316 µM) | IC50 (second compound 0.1 µM) | IC50 (second compound 0.316 µM) | IC50 (second compound 1 µM) | IC50 (second compound 3.16 µM) | IC50 (second compound 10 µM)

C=CCn1c(=O)c2cnc(Nc3ccc(N4CCN(C)CC4)cc3)nc2n1-c1cccc(C(C)(C)O)n1 + Cc1cnc(CNC(=O)c2c(=O)c3ccc(N4CCCN(C)CC4)nc3n3c2sc2ccccc23)cn1
inactive: viability, T/C [1] 49.8% | viability, T/C [2] 40.3% | viability, T/C [3] 47.3% | viability, T/C [4] 28.2% | viability, T/C [5] 22.4% | viability, T/C [6] 12.1% | viability, T/C [7] 29.4% | viability, T/C [8] 29% | viability, T/C [9] 28.7% | viability, T/C [10] 22.3% | viability, T/C [11] 21.3% | viability, T/C [12] 14.2% | viability, T/C [13] 27.4% | viability, T/C [14] 26.2% | viability, T/C [15] 28.2% | viability, T/C [16] 24.2% | viability, T/C [17] 24.8% | viability, T/C [18] 15.1% | viability, T/C [19] 19.4% | viability, T/C [20] 19.5% | viability, T/C [21] 22.5% | viability, T/C [22] 24.5% | viability, T/C [23] 23.4% | viability, T/C [24] 14.3% | viability, T/C [25] 18.1% | viability, T/C [26] 22.3% | viability, T/C [27] 25.9% | viability, T/C [28] 23.7% | viability, T/C [29] 21.1% | viability, T/C [30] 18.4% | viability, T/C [31] 23% | viability, T/C [32] 22.2% | viability, T/C [33] 24.2% | viability, T/C [34] 19.1% | viability, T/C [35] 25.2% | viability, T/C [36] 23.1%
< 31.6 nM: IC50 (second compound 0.0316 µM) | IC50 (second compound 0.1 µM) | IC50 (second compound 0.316 µM) | IC50 (second compound 1 µM) | IC50 (second compound 3.16 µM) | IC50 (second compound 10 µM)
